≈ marks a conversion by molar mass, not a printed value.
What was measured:
Format in all cases: functional
[1] = test system: Bactrocera dorsalis; test: Resistance ratio of LC50 for adult Bactrocera dorsalis WX07 to LC50 for adult Bactrocera dorsalis after 24 hr
[2] = test system: Bactrocera dorsalis; test: Insecticidal activity against adult Bactrocera dorsalis CH08 assessed as mortality after 24 hr; conditions: CH08, 24 h
[3] = test system: Bactrocera dorsalis; test: Insecticidal activity against adult Bactrocera dorsalis YJ08 assessed as mortality after 24 hr; conditions: YJ08, 24 h
[4] = test system: Bactrocera dorsalis; test: Resistance ratio of LC50 for adult Bactrocera dorsalis FZ07 to LC50 for adult Bactrocera dorsalis after 24 hr
[5] = test system: Bactrocera dorsalis; test: Resistance ratio of LC50 for adult Bactrocera dorsalis NN08 to LC50 for adult Bactrocera dorsalis after 24 hr
[6] = test system: Bactrocera dorsalis; test: Resistance ratio of LC50 for adult Bactrocera dorsalis YJ07 to LC50 for adult Bactrocera dorsalis after 24 hr
[7] = test system: Bactrocera dorsalis; test: Resistance ratio of LC50 for adult Bactrocera dorsalis C-R-45 to LC50 for adult Bactrocera dorsalis
[8] = test system: Bactrocera dorsalis; test: Insecticidal activity against adult Bactrocera dorsalis YJ07 assessed as mortality after 24 hr; conditions: YJ07, 24 h
[9] = test system: Bactrocera dorsalis; test: Resistance ratio of LC50 for adult Bactrocera dorsalis HK08 to LC50 for adult Bactrocera dorsalis after 24 hr
[10] = test system: Bactrocera dorsalis; test: Resistance ratio of LC50 for adult Bactrocera dorsalis CH08 to LC50 for adult Bactrocera dorsalis after 24 hr
[11] = test system: Bactrocera dorsalis; test: Insecticidal activity against adult Bactrocera dorsalis CS08 assessed as mortality after 24 hr; conditions: CS08, 24 h
[12] = test system: Bactrocera dorsalis; test: Insecticidal activity against adult Bactrocera dorsalis CH07 assessed as mortality after 24 hr; conditions: CH07, 24 h
[13] = test system: Bactrocera dorsalis; test: Insecticidal activity against adult Bactrocera dorsalis WX08 assessed as mortality after 24 hr; conditions: WX08, 24 h
[14] = test system: Bactrocera dorsalis; test: Resistance ratio of LC50 for adult Bactrocera dorsalis QY08 to LC50 for adult Bactrocera dorsalis after 24 hr
[15] = test system: Bactrocera dorsalis; test: Insecticidal activity against adult Bactrocera dorsalis HY07 assessed as mortality after 24 hr; conditions: HY07, 24 h
[16] = test system: Bactrocera dorsalis; test: Resistance ratio of LC50 for adult Bactrocera dorsalis C-R-48 to LC50 for adult Bactrocera dorsalis
[17] = test system: Bactrocera dorsalis; test: Insecticidal activity against adult Bactrocera dorsalis CS07 assessed as mortality after 24 hr; conditions: CS07, 24 h
[18] = test system: Bactrocera dorsalis; test: Resistance ratio of LC50 for adult Bactrocera dorsalis NN07 to LC50 for adult Bactrocera dorsalis after 24 hr
[19] = test system: Bactrocera dorsalis; test: Resistance ratio of LC50 for adult Bactrocera dorsalis GZ08 to LC50 for adult Bactrocera dorsalis after 24 hr
[20] = test system: Bactrocera dorsalis; test: Resistance ratio of LC50 for adult Bactrocera dorsalis ZJ07 to LC50 for adult Bactrocera dorsalis after 24 hr
[21] = test system: Bactrocera dorsalis; test: Resistance ratio of LC50 for adult Bactrocera dorsalis QY07 to LC50 for adult Bactrocera dorsalis after 24 hr
[22] = test system: Bactrocera dorsalis; test: Resistance ratio of LC50 for adult Bactrocera dorsalis CS07 to LC50 for adult Bactrocera dorsalis after 24 hr
[23] = test system: Bactrocera dorsalis; test: Insecticidal activity against adult Bactrocera dorsalis QY07 assessed as mortality after 24 hr; conditions: QY07, 24 h
[24] = test system: Bactrocera dorsalis; test: Insecticidal activity against adult Bactrocera dorsalis NN07 assessed as mortality after 24 hr; conditions: NN07, 24 h
[25] = test system: Bactrocera dorsalis; test: Insecticidal activity against adult Bactrocera dorsalis FZ07 assessed as mortality after 24 hr; conditions: FZ07, 24 h
[26] = test system: Bactrocera dorsalis; test: Insecticidal activity against adult Bactrocera dorsalis GZ08 assessed as mortality after 24 hr; conditions: GZ08, 24 h
[27] = test system: Bactrocera dorsalis; test: Resistance ratio of LC50 for adult Bactrocera dorsalis FZ08 to LC50 for adult Bactrocera dorsalis after 24 hr
[28] = test system: Bactrocera dorsalis; test: Resistance ratio of LC50 for adult Bactrocera dorsalis CH07 to LC50 for adult Bactrocera dorsalis after 24 hr
[29] = test system: Bactrocera dorsalis; test: Insecticidal activity against adult Bactrocera dorsalis C-R-48 assessed as mortality
[30] = test system: Bactrocera dorsalis; test: Insecticidal activity against adult Bactrocera dorsalis HK08 assessed as mortality after 24 hr; conditions: HK08, 24 h
[31] = test system: Bactrocera dorsalis; test: Insecticidal activity against adult Bactrocera dorsalis MM07 assessed as mortality after 24 hr; conditions: MM07, 24 h
[32] = test system: Bactrocera dorsalis; test: Resistance ratio of LC50 for adult Bactrocera dorsalis HZ08 to LC50 for adult Bactrocera dorsalis after 24 hr
[33] = test system: Bactrocera dorsalis; test: Resistance ratio of LC50 for adult Bactrocera dorsalis HY07 to LC50 for adult Bactrocera dorsalis after 24 hr
[34] = test system: Bactrocera dorsalis; test: Resistance ratio of LC50 for adult Bactrocera dorsalis MM07 to LC50 for adult Bactrocera dorsalis after 24 hr
[35] = test system: Bactrocera dorsalis; test: Resistance ratio of LC50 for adult Bactrocera dorsalis WX08 to LC50 for adult Bactrocera dorsalis after 24 hr
[36] = test system: Bactrocera dorsalis; test: Resistance ratio of LC50 for adult Bactrocera dorsalis CS08 to LC50 for adult Bactrocera dorsalis after 24 hr
[37] = test system: Bactrocera dorsalis; test: Insecticidal activity against adult Bactrocera dorsalis HZ08 assessed as mortality after 24 hr; conditions: HZ08, 24 h
[38] = test system: Bactrocera dorsalis; test: Resistance ratio of LC50 for adult Bactrocera dorsalis HK07 to LC50 for adult Bactrocera dorsalis after 24 hr
[39] = test system: Bactrocera dorsalis; test: Insecticidal activity against adult Bactrocera dorsalis HY08 assessed as mortality after 24 hr; conditions: HY08, 24 h
[40] = test system: Bactrocera dorsalis; test: Resistance ratio of LC50 for adult Bactrocera dorsalis MM08 to LC50 for adult Bactrocera dorsalis after 24 hr
[41] = test system: Bactrocera dorsalis; test: Insecticidal activity against adult Bactrocera dorsalis GZ07 assessed as mortality after 24 hr; conditions: GZ07, 24 h
[42] = test system: Bactrocera dorsalis; test: Insecticidal activity against adult Bactrocera dorsalis NN08 assessed as mortality after 24 hr; conditions: NN08, 24 h
[43] = test system: Bactrocera dorsalis; test: Insecticidal activity against adult Bactrocera dorsalis assessed as mortality after 24 hr
[44] = test system: Bactrocera dorsalis; test: Resistance ratio of LC50 for adult Bactrocera dorsalis YJ08 to LC50 for adult Bactrocera dorsalis after 24 hr
[45] = test system: Bactrocera dorsalis; test: Insecticidal activity against adult Bactrocera dorsalis HZ07 assessed as mortality after 24 hr; conditions: HZ07, 24 h
[46] = test system: Bactrocera dorsalis; test: Insecticidal activity against adult Bactrocera dorsalis WX07 assessed as mortality after 24 hr; conditions: WX07, 24 h
[47] = test system: Bactrocera dorsalis; test: Resistance ratio of LC50 for adult Bactrocera dorsalis GZ07 to LC50 for adult Bactrocera dorsalis after 24 hr
[48] = test system: Bactrocera dorsalis; test: Insecticidal activity against adult Bactrocera dorsalis FZ08 assessed as mortality after 24 hr; conditions: FZ08, 24 h
[49] = test system: Bactrocera dorsalis; test: Insecticidal activity against adult Bactrocera dorsalis MM08 assessed as mortality after 24 hr; conditions: MM08, 24 h
[50] = test system: Bactrocera dorsalis; test: Insecticidal activity against adult Bactrocera dorsalis QY08 assessed as mortality after 24 hr; conditions: QY08, 24 h
[51] = test system: Bactrocera dorsalis; test: Resistance ratio of LC50 for adult Bactrocera dorsalis HY08 to LC50 for adult Bactrocera dorsalis after 24 hr
[52] = test system: Bactrocera dorsalis; test: Resistance ratio of LC50 for adult Bactrocera dorsalis HZ07 to LC50 for adult Bactrocera dorsalis after 24 hr
[53] = test system: Bactrocera dorsalis; test: Insecticidal activity against adult Bactrocera dorsalis ZJ07 assessed as mortality after 24 hr; conditions: ZJ07, 24 h
[54] = test system: Bactrocera dorsalis; test: Insecticidal activity against adult Bactrocera dorsalis C-R-45 assessed as mortality
[55] = test system: Bactrocera dorsalis; test: Insecticidal activity against adult Bactrocera dorsalis HK07 assessed as mortality after 24 hr; conditions: HK07, 24 h

What does the source list for `CC1(C)[C@H](C=C(Cl)Cl)[C@H]1C(=O)O[C@@H](C#N)c1cccc(Oc2ccccc2)c1` [BETA-CYPERMETHRIN]?
RatioLC50 [1]: 9.59; LC50 [2]: 60.6 µg/mL (≈ 146 µM); LC50 [3]: 10.5 µg/mL (≈ 25.3 µM); RatioLC50 [4]: 5.34; RatioLC50 [5]: 5.02; RatioLC50 [6]: 1.1; RatioLC50 [7]: 329.3; LC50 [8]: 2.74 µg/mL (≈ 6.58 µM); RatioLC50 [9]: 12.17; RatioLC50 [10]: 24.35; LC50 [11]: 14.8 µg/mL (≈ 35.4 µM); LC50 [12]: 64.1 µg/mL (≈ 154 µM); LC50 [13]: 110 µg/mL (≈ 263 µM); RatioLC50 [14]: 4.91; LC50 [15]: 32.7 µg/mL (≈ 78.5 µM); RatioLC50 [16]: 333.42; LC50 [17]: 15.1 µg/mL (≈ 36.2 µM); RatioLC50 [18]: 3.19; RatioLC50 [19]: 9.71; RatioLC50 [20]: 3.01; RatioLC50 [21]: 6.08; RatioLC50 [22]: 6.06; LC50 [23]: 15.1 µg/mL (≈ 36.4 µM); LC50 [24]: 7.95 µg/mL (≈ 19.1 µM); LC50 [25]: 13.3 µg/mL (≈ 31.9 µM); LC50 [26]: 24.2 µg/mL (≈ 58.1 µM); RatioLC50 [27]: 8.17; RatioLC50 [28]: 25.74; LC90 [29]: 3959.5 µg/mL (≈ 9510 µM); LC50 ([29]; Bactrocera dorsalis, C-R-48): 830 µg/mL (≈ 1990 µM); LC50 [30]: 30.3 µg/mL (≈ 72.8 µM); LC50 [31]: 42.3 µg/mL (≈ 102 µM); RatioLC50 [32]: 28.39; RatioLC50 [33]: 13.14; RatioLC50 [34]: 17; RatioLC50 [35]: 44.03; RatioLC50 [36]: 5.93; LC50 [37]: 70.7 µg/mL (≈ 170 µM); RatioLC50 [38]: 6.23; LC50 [39]: 42.5 µg/mL (≈ 102 µM); RatioLC50 [40]: 13.72; LC50 [41]: 46.3 µg/mL (≈ 111 µM); LC50 [42]: 12.5 µg/mL (≈ 30 µM); LC90 [43]: 3.6 µg/mL (≈ 8.65 µM); LC50 ([43]; Bactrocera dorsalis, 24 h): 2.49 µg/mL (≈ 5.98 µM); RatioLC50 [44]: 4.23; LC50 [45]: 11.4 µg/mL (≈ 27.3 µM); LC50 [46]: 23.9 µg/mL (≈ 57.3 µM); RatioLC50 [47]: 18.6; LC50 [48]: 20.4 µg/mL (≈ 48.9 µM); LC50 [49]: 34.2 µg/mL (≈ 82.1 µM); LC50 [50]: 12.2 µg/mL (≈ 29.4 µM); RatioLC50 [51]: 17.06; RatioLC50 [52]: 4.57; LC50 [53]: 7.49 µg/mL (≈ 18 µM); LC90 [54]: 7082.07 µg/mL (≈ 17000 µM); LC50 ([54]; Bactrocera dorsalis, C-R-45): 820 µg/mL (≈ 1970 µM); LC50 [55]: 15.5 µg/mL (≈ 37.2 µM)
